Values quoted from earlier work as cited in patent US11154501B2, “Method of enhancing the efficacy and stability of ingredients in suspensions” (Nanophase Technologies Corporation, priority 2019, dated 2021).

Details: for solubility limit: in water at 25° C.

SMILES | solubility limit [%] | solubility (in words) (in neutral water)
NC(=O)NC1NC(=O)NC1=O (stereo not drawn) [allantoin, (2,5-dioxo-4-imidazolidinyl) urea, reference compound] | 0.5 | –
O.O.O=c1c(O)c(-c2ccc(O)c(O)c2)oc2cc(O)cc(O)c12 [quercetin dihydrate] | – | very poorly soluble
C[C@@H]1O[C@@H](OC[C@H]2O[C@@H](Oc3c(-c4ccc(O)c(O)c4)oc4cc(O)cc(O)c4c3=O)[C@H](O)[C@@H](O)[C@@H]2O)[C@H](O)[C@H](O)[C@H]1O [rutin] | 0.013 | –
